Assay results: the supplement of paper PMC10307832

How the values were obtained:
Assay in all cases: relative viability (nuclei count vs DMSO), 5 days (fraction); higher = more cells survive
AT-7519 + Navitoclax = compound: O=C(NC1CCNCC1)c1n[nH]cc1NC(=O)c1c(Cl)cccc1Cl [AT-7519] + CC1(C)CCC(c2ccc(Cl)cc2)=C(CN2CCN(c3ccc(C(=O)NS(=O)(=O)c4ccc(N[C@H](CCN5CCOCC5)CSc5ccccc5)c(S(=O)(=O)C(F)(F)F)c4)cc3)CC2)C1 [Navitoclax] (partner 0.5 µM)
How it was run: (§1)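 Lung cancer cell lines, seeded in 1536-well plates, were treated the following day by pin tool with a single drug or with five library-drug doses (not always all listed) in √10 steps on top of a fixed anchor-drug dose. Cells were fixed and nuclei stained in one step after 5 days, and nuclei were counted. Relative viability is the nuclei count for treated wells divided by that for vehicle wells, reported as medians of duplicate plates.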

AT-7519 + Trametinib = compound: O=C(NC1CCNCC1)c1n[nH]cc1NC(=O)c1c(Cl)cccc1Cl [AT-7519] + CC(=O)Nc1cccc(-n2c(=O)n(C3CC3)c(=O)c3c(Nc4ccc(I)cc4F)n(C)c(=O)c(C)c32)c1 [Trametinib] (partner 0.02 µM)
How it was run: as §1

[1] = compound: C1=CC2=C(C=C(C(=C2N=C1)O)N=NC3=CC4=C(C=C3)C=C(C=C4)S(=O)(=O)O)S(=O)(=O)O + O=C(CCCCCCC(=O)Nc1ccccc1)NO [Vorinostat] (partner 1 µM)
How it was run: as §1

[2] = compound: C1=CC2=C(C=C(C(=C2N=C1)O)N=NC3=CC4=C(C=C3)C=C(C=C4)S(=O)(=O)O)S(=O)(=O)O + COc1cc2c(Oc3ccc(NC(=O)C4(C(=O)Nc5ccc(F)cc5)CC4)cc3F)ccnc2cc1OCCCN1CCOCC1 [Foretinib] (partner 0.25 µM)
How it was run: as §1

| Cell Line | relative viability (AT-7519 + Navitoclax; first compound 0.01 µM) | relative viability (AT-7519 + Navitoclax; first compound 0.03162 µM) | relative viability (AT-7519 + Navitoclax; first compound 0.3162 µM) | relative viability (AT-7519 + Navitoclax; first compound 1 µM) | relative viability (AT-7519 + Trametinib; first compound 0.01 µM) | relative viability (AT-7519 + Trametinib; first compound 0.03162 µM) | relative viability (AT-7519 + Trametinib; first compound 0.3162 µM) | relative viability (AT-7519 + Trametinib; first compound 1 µM) | relative viability ([1]; first compound 0.08 µM) | relative viability ([1]; first compound 0.253 µM) | relative viability ([1]; first compound 0.8 µM) | relative viability ([1]; first compound 2.53 µM) | relative viability ([1]; first compound 8 µM) | relative viability ([2]; first compound 0.08 µM) | relative viability ([2]; first compound 0.253 µM) | relative viability ([2]; first compound 0.8 µM) | relative viability ([2]; first compound 2.53 µM) | relative viability ([2]; first compound 8 µM) |
| --- | --- | --- | --- | --- | --- | --- | --- | --- | --- | --- | --- | --- | --- | --- | --- | --- | --- | --- |
| NCI-H1650 | 1.32 | 1.21 | 1.2 | 0.291 | 0.634 | 0.538 | 0.449 | 0.223 | 0.577 | 0.447 | 0.594 | 0.633 | 0.373 | 1.34 | 1.17 | 1.38 | 1.01 | 0.448 |
| NCI-H1651 | 0.983 | 1.08 | 0.997 | 0.882 | 0.765 | 0.781 | 0.871 | 0.828 | 0.66 | 0.561 | 0.566 | 0.535 | 0.546 | 0.923 | 0.727 | 0.864 | 0.857 | 0.623 |
| NCI-H1666 | 0.893 | 0.758 | 0.724 | 0.316 | 0.871 | 0.842 | 0.811 | 0.593 | 1.05 | 0.98 | 1.03 | 1.07 | 0.985 | 1.05 | 0.962 | 0.962 | 0.958 | 0.747 |
| NCI-H1734 | 0.893 | 0.758 | 0.686 | 0.452 | 0.644 | 0.629 | 0.618 | 0.31 | 0.788 | 0.852 | 0.757 | 0.718 | 0.859 | 0.916 | 0.892 | 0.777 | 0.891 | 0.88 |
| NCI-H1755 | 1.05 | 0.983 | 1.02 | 0.986 | 0.834 | 0.768 | 0.787 | 0.469 | 0.81 | 0.773 | 0.709 | 0.824 | 0.728 | 0.915 | 0.916 | 0.869 | 0.944 | 0.89 |
| NCI-H1793 | 0.352 | 0.416 | 0.313 | 0.365 | 0.492 | 0.489 | 0.433 | 0.218 | 0.797 | 0.814 | 0.795 | 0.78 | 0.838 | 0.539 | 0.606 | 0.674 | 0.749 | 0.71 |
| NCI-H1915 | 0.817 | 0.83 | 0.758 | 0.785 | 0.58 | 0.304 | 0.316 | 0.118 | 0.539 | 0.547 | 0.518 | 0.513 | 0.527 | 1.12 | 1.04 | 1.09 | 1.13 | 1.12 |
| NCI-H1944 | 0.988 | 1.06 | 1.14 | 0.982 | 0.423 | 0.481 | 0.362 | 0.302 | 0.52 | 0.538 | 0.525 | 0.583 | 0.477 | 0.899 | 0.937 | 0.93 | 0.769 | 0.748 |
| NCI-H1975 | 1.01 | 1.02 | 0.87 | 0.236 | 0.339 | 0.311 | 0.342 | 0.165 | 0.707 | 0.693 | 0.63 | 0.753 | 0.732 | 0.912 | 1.02 | 0.916 | 1.04 | 0.952 |
